What was measured:
QKF-KAT6B = target: T1, QKF-KAT6B (Homo sapiens, UniProt Q8WYB5); test: Revised Acetyltransferase Biochemical Assay, KAT6B; details: 8 nM KAT6B, 1 μM AcCoA, 100 nM histone H3.1, 90 min
T1 construct: purchased SignalChem K315-381BG
Excerpt: KAT6B was obtained from SignalChem, catalog ID: K315-381BG

HBO-KAT7 [1] = target: T2, HBO-KAT7 (Homo sapiens, UniProt O95251); test: Revised Acetyltransferase Biochemical Assay, KAT7; details: Table 9 (HBO-KAT7), 1 μM Acetyl coenzyme A
T2 construct: encoding amino acid residues 325 to 611 (Uniprot 095251-1) of human KAT7; made in house; host or cells: E. coli BL21 DE3 RIL

MOF-KAT8 [2] = target: T3, MOF-KAT8 (Homo sapiens, UniProt Q9H7Z6); test: Revised Acetyltransferase Biochemical Assay, KAT8
T3 sequence (Q9H7Z6 177-447): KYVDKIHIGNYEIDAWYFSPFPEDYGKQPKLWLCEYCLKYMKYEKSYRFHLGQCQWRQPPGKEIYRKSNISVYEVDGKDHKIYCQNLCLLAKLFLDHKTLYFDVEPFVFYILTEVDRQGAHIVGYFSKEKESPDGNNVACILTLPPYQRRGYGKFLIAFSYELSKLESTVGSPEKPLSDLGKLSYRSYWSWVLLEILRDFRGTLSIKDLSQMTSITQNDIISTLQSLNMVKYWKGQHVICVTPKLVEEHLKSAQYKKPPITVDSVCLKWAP

TIP60-KAT5 [3] = target: T4, TIP60-KAT5 (Homo sapiens, UniProt Q92993); test: Revised Acetyltransferase Biochemical Assay, KAT5; details: 10 nM KAT5, 1 μM AcCoA, 100 nM histone H4, 90 min
T4 construct: encoding amino acid residues 2 to 461 (Uniprot Q92993-2) of human KAT5 isoform; made in house; host or cells: E. coli BL21 DE3

MOZ-KAT6A [4] = target: T5, MOZ-KAT6A (Homo sapiens, UniProt Q92794, A567V); test: Acetyltransferase biochemical assay (AlphaScreen), KAT6A; details: Table 2 (MOZ-KAT6A); 10 μM Acetyl coenzyme A, histone H3.1, 5 nM enzyme
T5 construct: encoding amino acid residues 507 to 778 (Uniprot Q92794-1) of human KAT6A; made in house; host or cells: E. coli BL21 DE3

[5] = test system: histone H3K23 acetylation (KATE mediated) in U2OS cells; test: Histone H3 Lysine 23 Acetylation Biomarker Assay (U2OS); format: cell-based; details: 96 well, 24 hours incubation
Method: Compounds may be tested for their ability to inhibit acetylation of the histone H3K23 marker, which is KATE mediated, in the following assay:
The cell line U2OS was seeded at a density of 9,000 cells per well in 96 well optical quality tissue culture plates in RPMI medium and 10% foetal bovine serum, and allowed to adhere for 24 hours under standard culture conditions (37 degree Celsius, 5% CO2). At the end of this period the medium was aspirated. Compound dilutions prepared in DMSO were added to medium, with negative control wells reserved for treatment with DMSO only and 100% inhibition positive controls receiving a potent inhibitor compound (e.g. cas 2055397-28-7, benzoic acid, 3-fluoro-5-(2-pyridinyl)-, 2-[(2-fluorophenyl)sulfonyl]hydrazide) (Baell, J., Nguyen, H. N., Leaver, D. J., Cleary, B. L., Lagiakos, H. R., Sheikh, B. N., Thomas. T. J., Aryl sulfonohydrazides, WO2016198507A1, 2016) at 10 μM concentration and 200 μL transferred to the cells. After incubation for 24 hours, the cells were fixed with 3.7% formaldehyde in PBS for 20 minutes at room temperature, washed (5×5 minutes) with phosphate buffer saline containing 0.1% Tween 20 and blocked with Odyssey blocking buffer (LI-COR, Lincoln, Nebr.) containing 0.1% TritonX100. Anti-H3K23ac specific antibody (Abcam ab177275) in Odyssey blocking buffer containing 0.1% Tween 20 was added and incubated for 16 hours at 4 degree Celsius. After washing (as above), a secondary antibody labelled with Alexa647 dye (LifeTechnologies) and Hoechst 33342 (1 μg/mL, SigmaAldrich) were added for 1 hour incubation. Plates were washed as previously and read on a PerkinElmer Phenix high content imaging platform. Using a Columbus image analysis pipeline, individual nuclei were located by Hoechst 33342 stain and the acetylation level was calculated from the Alexa647-related intensity in the same area. The resulting mean intensity per cell was directly converted to percent inhibition relative to controls on the same plate and the data fitted against a four-parameter logistic model to determine the 50% inhibitory concentration (IC50).

MOZ-KAT6A [6] = target: T5, MOZ-KAT6A; test: Revised Acetyltransferase Biochemical Assay, KAT6A; details: Table 8 (MOZ-KAT6A), 1 μM Acetyl coenzyme A
TIP60-KAT5 [7] = target: T4, TIP60-KAT5; test: Acetyltransferase biochemical assay (AlphaScreen), KAT5; details: Table 1 (TIP60-KAT5); 0.4 μM Acetyl coenzyme A, histone H4, 10 nM enzyme
HBO-KAT7 [8] = target: T2, HBO-KAT7; test: Acetyltransferase biochemical assay (AlphaScreen), KAT7; details: Table 3 (HBO-KAT7); 0.4 μM Acetyl coenzyme A, histone H3.1, 40 nM enzyme
MOF-KAT8 [9] = target: T3, MOF-KAT8; test: Acetyltransferase biochemical assay (AlphaScreen), KAT8; details: Table 4 (MOF-KAT8); 0.4 μM Acetyl coenzyme A, histone H4, 20 nM enzyme
[10] = test system: histone H2A.Z Lysine 7 acetylation (TIP60 mediated) in U2OS cells; test: H2A.Z Lysine 7 Acetylation Biomarker Assay (384-well, U2OS); format: cell-based; details: Homo sapiens, serum free medium, 24 hours incubation
Summary of the method: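 U2OS cells (3,000/well) were treated with compound for 24 h after a serum-free wash, then fixed. They were stained with anti-H2A.ZK7ac, an AlexaFluor 488 secondary and Hoechst. High-content imaging gave mean nuclear intensity per cell, converted to percent inhibition against on-plate controls, and IC50 came from a four-parameter logistic fit.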

[11] = test system: histone H3 Lysine 14 acetylation (HBO1 mediated) in U2OS cells; test: Histone H3 Lysine 14 Acetylation Biomarker Assay (384-well, U2OS); format: cell-based; details: Homo sapiens, serum free medium, 24 hours incubation
Method: Compounds may be tested for their ability to inhibit acetylation of the histone H3 Lysine 14 (which is HBO1 mediated) marker in the following assay:
The cell line U2OS was seeded at a density of 3,000 cells per well in 384-well optical quality tissue culture plates in RPMI medium supplemented with 10% foetal bovine serum and 10 mM Hepes. The cells were allowed to adhere for 24 hours under standard culture conditions (37 degree Celsius, 5% CO2). At the end of this period the cells were washed with serum free medium. Compound dilutions prepared in DMSO were added to the serum free medium, with negative control wells reserved for treatment with DMSO only and 100% inhibition positive controls receiving a potent inhibitor compound (e.g. (Z)-4-fluoro-N-((3-hydroxyphenyl)sulfonyl)-5-methyl-[1,1′-biphenyl]-3-carbohydrazonic acid) at 10 μM concentration. After incubation for 24 hours, the cells were fixed with 4% formaldehyde in PBS for 15 minutes at room temperature, washed with phosphate buffer saline and blocked with blocking buffer containing 0.2% TritonX100 and 2% BSA. Anti-H3K14ac specific antibody (Cell Signalling Technologies) in blocking buffer was added and incubated overnight at 4 degree Celsius. After washing, a secondary antibody labelled with AlexaFluor 488 dye (ThermoFisher) and Hoechst 33342 (1 μg/mL, Life Technologies) were added for 2 hours incubation at room temperature. Plates were washed and read on a
PerkinElmer Opera HCS high content imaging platform. Using a Columbus image analysis pipeline, individual nuclei were located by Hoechst 33342 stain and the acetylation level was calculated from the AlexaFluor 488-related intensity in the same area. The resulting mean intensity per cell was converted to percent inhibition relative to controls on the same plate and the data fitted against a four-parameter logistic model to determine the 50% inhibitory concentration (IC50).

T2 sequence (O95251 with tags, fused parts or gaps): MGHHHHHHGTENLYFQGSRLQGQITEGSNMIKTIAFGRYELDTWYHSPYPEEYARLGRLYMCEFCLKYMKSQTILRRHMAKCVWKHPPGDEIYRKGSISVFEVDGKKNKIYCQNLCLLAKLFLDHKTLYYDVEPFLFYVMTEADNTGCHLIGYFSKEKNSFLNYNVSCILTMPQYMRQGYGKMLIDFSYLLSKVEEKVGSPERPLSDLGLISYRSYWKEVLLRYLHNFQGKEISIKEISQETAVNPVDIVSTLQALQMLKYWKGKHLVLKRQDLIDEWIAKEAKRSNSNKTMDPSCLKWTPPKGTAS
T1 sequence (Q8WYB5 whole entry): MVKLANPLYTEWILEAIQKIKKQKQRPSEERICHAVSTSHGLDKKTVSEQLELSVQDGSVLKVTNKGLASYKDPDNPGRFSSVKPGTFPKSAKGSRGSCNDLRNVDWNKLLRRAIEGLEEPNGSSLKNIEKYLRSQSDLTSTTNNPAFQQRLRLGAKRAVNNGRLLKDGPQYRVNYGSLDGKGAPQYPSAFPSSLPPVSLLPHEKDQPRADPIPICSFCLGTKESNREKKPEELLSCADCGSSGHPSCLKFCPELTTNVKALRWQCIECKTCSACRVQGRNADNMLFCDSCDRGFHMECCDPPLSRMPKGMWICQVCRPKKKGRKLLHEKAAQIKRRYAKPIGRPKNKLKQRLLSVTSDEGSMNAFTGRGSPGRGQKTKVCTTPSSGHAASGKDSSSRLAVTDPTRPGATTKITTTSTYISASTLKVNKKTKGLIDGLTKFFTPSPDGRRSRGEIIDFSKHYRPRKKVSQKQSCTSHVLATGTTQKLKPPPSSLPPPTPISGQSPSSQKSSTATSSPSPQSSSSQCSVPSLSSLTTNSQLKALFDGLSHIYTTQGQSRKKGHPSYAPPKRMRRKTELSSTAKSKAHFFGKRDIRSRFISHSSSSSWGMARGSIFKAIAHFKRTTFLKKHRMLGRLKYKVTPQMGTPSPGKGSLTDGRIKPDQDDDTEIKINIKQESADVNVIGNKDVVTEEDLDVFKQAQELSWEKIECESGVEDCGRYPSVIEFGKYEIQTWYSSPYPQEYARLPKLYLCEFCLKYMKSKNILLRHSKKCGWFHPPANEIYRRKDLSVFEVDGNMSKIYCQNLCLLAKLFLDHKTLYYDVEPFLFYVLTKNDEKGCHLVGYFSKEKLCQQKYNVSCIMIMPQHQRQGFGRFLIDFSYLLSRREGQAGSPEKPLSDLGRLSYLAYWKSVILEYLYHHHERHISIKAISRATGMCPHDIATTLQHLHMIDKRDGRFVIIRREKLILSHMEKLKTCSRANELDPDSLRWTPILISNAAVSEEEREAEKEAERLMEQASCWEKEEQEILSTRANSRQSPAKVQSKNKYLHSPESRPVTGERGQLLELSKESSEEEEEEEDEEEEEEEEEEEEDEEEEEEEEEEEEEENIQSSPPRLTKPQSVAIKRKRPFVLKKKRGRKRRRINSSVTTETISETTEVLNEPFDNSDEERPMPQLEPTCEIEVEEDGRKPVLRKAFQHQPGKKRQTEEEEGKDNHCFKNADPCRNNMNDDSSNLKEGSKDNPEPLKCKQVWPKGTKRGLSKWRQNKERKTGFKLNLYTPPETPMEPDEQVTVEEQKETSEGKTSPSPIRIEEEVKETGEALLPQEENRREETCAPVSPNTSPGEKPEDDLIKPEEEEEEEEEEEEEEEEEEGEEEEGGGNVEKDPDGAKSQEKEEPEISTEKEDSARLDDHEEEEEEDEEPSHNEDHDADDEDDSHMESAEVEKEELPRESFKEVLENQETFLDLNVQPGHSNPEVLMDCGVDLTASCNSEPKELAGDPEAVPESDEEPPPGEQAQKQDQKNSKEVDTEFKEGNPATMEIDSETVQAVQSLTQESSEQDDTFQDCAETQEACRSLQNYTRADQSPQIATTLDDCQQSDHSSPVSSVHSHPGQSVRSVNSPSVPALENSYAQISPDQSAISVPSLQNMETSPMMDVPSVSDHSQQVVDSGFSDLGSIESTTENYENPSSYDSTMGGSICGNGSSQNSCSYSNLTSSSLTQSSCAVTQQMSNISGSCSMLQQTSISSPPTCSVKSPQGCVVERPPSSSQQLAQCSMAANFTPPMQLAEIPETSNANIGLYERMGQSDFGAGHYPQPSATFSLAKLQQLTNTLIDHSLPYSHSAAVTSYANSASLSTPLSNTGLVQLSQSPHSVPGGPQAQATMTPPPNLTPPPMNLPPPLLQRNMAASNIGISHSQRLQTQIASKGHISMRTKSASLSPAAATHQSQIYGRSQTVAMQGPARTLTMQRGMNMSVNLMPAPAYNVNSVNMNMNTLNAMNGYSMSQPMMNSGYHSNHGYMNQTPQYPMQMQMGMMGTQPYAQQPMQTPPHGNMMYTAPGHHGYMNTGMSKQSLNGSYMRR
T4 sequence (Q92993 2-461 isoform Q92993-2): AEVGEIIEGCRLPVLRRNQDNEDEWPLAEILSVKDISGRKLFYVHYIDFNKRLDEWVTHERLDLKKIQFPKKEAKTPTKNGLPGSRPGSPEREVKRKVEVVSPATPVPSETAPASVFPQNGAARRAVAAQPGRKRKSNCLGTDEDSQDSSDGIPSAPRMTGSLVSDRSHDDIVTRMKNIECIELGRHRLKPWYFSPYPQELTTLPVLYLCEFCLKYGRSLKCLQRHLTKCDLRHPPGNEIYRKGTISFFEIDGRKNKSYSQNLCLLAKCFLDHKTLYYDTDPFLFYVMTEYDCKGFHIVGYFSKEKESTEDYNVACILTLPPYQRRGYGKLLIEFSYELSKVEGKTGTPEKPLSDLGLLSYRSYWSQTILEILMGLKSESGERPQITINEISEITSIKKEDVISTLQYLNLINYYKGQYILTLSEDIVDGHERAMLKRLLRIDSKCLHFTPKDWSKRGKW
T5 sequence (Q92794 507-778 A567V limits assumed): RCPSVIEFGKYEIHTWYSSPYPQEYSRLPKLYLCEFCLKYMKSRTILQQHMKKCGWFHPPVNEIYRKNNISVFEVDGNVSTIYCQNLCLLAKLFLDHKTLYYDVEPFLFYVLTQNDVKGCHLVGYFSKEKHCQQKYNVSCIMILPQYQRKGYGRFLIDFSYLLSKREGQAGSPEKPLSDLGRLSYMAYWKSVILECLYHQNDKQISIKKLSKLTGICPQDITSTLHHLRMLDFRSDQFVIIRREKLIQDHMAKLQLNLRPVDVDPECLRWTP

Row | Structure (SMILES) | IC50 (QKF-KAT6B) | IC50 (HBO-KAT7 [1]) | IC50 (MOF-KAT8 [2]; read-out: IC50 (MOF-KAT8), Revised acetyltransferase biochemical assay, 20 nM KAT8, 1 μM AcCoA, 100 nM histone H4, 90 min) | IC50 (TIP60-KAT5 [3]) | IC50 (MOZ-KAT6A [4]) | IC50 [5] | IC50 (MOZ-KAT6A [6]) | IC50 (TIP60-KAT5 [7]) | IC50 (HBO-KAT7 [8]) | IC50 (MOF-KAT8 [2]) | IC50 ([5]; Homo sapiens) | IC50 (MOF-KAT8 [9]) | IC50 [10] | IC50 [11]
1 | Cn1cc(-c2ccc3c(c2)S(=O)(=O)NC(C(=O)NCC(c2ccccc2)c2ncco2)=N3)cn1 (centres unmarked) [Example 25, 7-(1-Methyl-1H-pyrazol-4-yl)-N-(2-(oxazol-2-yl)-2-phenylethyl)-2H-benzo[e][1,2,4]thiadiazine-3-carboxamide 1,1-dioxide] | 610 nM | 12000 nM | – | 5910 nM | 51.2 nM | – | 64 nM | 6890 nM | 1930 nM | > 125000 nM | 3820 nM | 78200 nM | – | –
2 | O=C(NCC(c1ccccc1)c1ncc[nH]1)C1=Nc2ccccc2S(=O)(=O)N1 (centres unmarked) [Example 113] | > 125000 nM | 6410 nM | – | > 125000 nM | – | – | 99000 nM | > 125000 nM | – | > 125000 nM | > 10000 nM | – | – | –
3 | O=C(NCC(c1ccccc1)c1n[nH]c(=O)o1)C1=Nc2ccc(I)cc2S(=O)(=O)N1 (centres unmarked) [Example 186] | – | 1960 nM | – | 734 nM | – | – | 24 nM | – | – | – | > 10000 nM | 71500 nM | > 40000 nM | > 40000 nM
4 | O=C(NCC1(c2ccccn2)CCCCC1)C1=Nc2ccc(Cl)cc2S(=O)(=O)N1 [Example 197] | 780 nM | 7530 nM | – | 23600 nM | – | – | 290 nM | – | – | – | 3040 nM | – | – | –
5 | O=C(NCC1(c2ccccn2)CCCC1)C1=Nc2ccc(Cl)cc2S(=O)(=O)N1 [Example 198] | 1380 nM | 8370 nM | – | 42300 nM | – | – | 351 nM | – | – | – | 5200 nM | – | – | –
6 | O=C(NCC(CO)C1CCCCC1)C1=Nc2ccc(Cl)cc2S(=O)(=O)N1 (centres unmarked) [Example 199] | 6170 nM | 6570 nM | – | 15600 nM | – | – | 838 nM | – | – | – | 10000 nM | – | – | –
7 | O=C(NCCC1CCCCC1)C1=Nc2ccc(Cl)cc2S(=O)(=O)N1 [Example 202] | > 125000 nM | > 125000 nM | – | > 125000 nM | – | – | 1040 nM | – | – | – | > 10000 nM | – | – | –

More lines, now with the values ahead:

Row | IC50 (QKF-KAT6B) | IC50 (HBO-KAT7 [1]) | IC50 (MOF-KAT8 [2]; read-out: IC50 (MOF-KAT8), Revised acetyltransferase biochemical assay, 20 nM KAT8, 1 μM AcCoA, 100 nM histone H4, 90 min) | IC50 (TIP60-KAT5 [3]) | IC50 (MOZ-KAT6A [4]) | IC50 [5] | IC50 (MOZ-KAT6A [6]) | IC50 (TIP60-KAT5 [7]) | IC50 (HBO-KAT7 [8]) | IC50 (MOF-KAT8 [2]) | IC50 ([5]; Homo sapiens) | IC50 (MOF-KAT8 [9]) | IC50 [10] | IC50 [11] | Structure (SMILES)
8 | 459 nM | 1390 nM | 46700 nM | 1060 nM | 120 nM | 104 nM | 21 nM | 1650 nM | – | – | – | – | – | – | O=C(NCC(c1ccccc1)c1ncco1)C1=Nc2ccc(F)cc2S(=O)(=O)N1 (single isomer, unassigned) [Example 144]
9 | 58 nM | 83 nM | – | 156 nM | – | – | 10 nM | 2360 nM | 1780 nM | 37800 nM | 1060 nM | – | – | – | COCc1ccccc1CCNC(=O)C1=Nc2ccc(I)cc2S(=O)(=O)N1 [Example 14, 7-Iodo-N-(2-(methoxymethyl)phenethyl)-2H-benzo[e][1,2,4]thiadiazine-3-carboxamide 1,1-dioxide]
10 | 4050 nM | 295 nM | – | 3200 nM | – | – | 371 nM | – | – | 16300 nM | 5090 nM | – | – | – | COc1cc(C)cc(C(CNC(=O)C2=Nc3ccc(Cl)cc3S(=O)(=O)N2)c2ncco2)c1 (centres unmarked) [Example 159, 7-chloro-N-(2-(3-methoxy-5-methylphenyl)-2-(oxazol-2-yl)ethyl)-2H-benzo[e][1,2,4]thiadiazine-3-carboxamide 1,1-dioxide]
11 | – | 478 nM | – | 311 nM | – | – | 13 nM | – | 162 nM | 30200 nM | 154 nM | 29300 nM | 11900 nM | 1840 nM | O=C(NCC(F)(c1ccccc1)c1ncco1)C1=Nc2ccc(Cl)cc2S(=O)(=O)N1 (centres unmarked) [Example 175]
12 | – | 124 nM | – | 23 nM | – | – | 4 nM | – | 64 nM | 8210 nM | 195 nM | 6250 nM | 1180 nM | 1030 nM | O=C(NCC(F)(c1ccccc1)c1ncco1)C1=Nc2ccc(I)cc2S(=O)(=O)N1 (centres unmarked) [Example 177]
13 | – | 1940 nM | – | 4170 nM | – | – | 493 nM | – | – | – | 9080 nM | – | > 40000 nM | 31200 nM | Cn1nc(-c2ccccc2CCNC(=O)C2=Nc3ccc(Cl)cc3S(=O)(=O)N2)oc1=O [Example 193]
14 | – | 152 nM | – | 506 nM | – | – | 28 nM | – | 63 nM | 58600 nM | – | 64300 nM | 15900 nM | 14100 nM | O=C(NCC(c1cccc(O)c1)c1ncco1)C1=Nc2ccc(Cl)cc2S(=O)(=O)N1 (centres unmarked) [Example 216, 7-Chloro-N-(2-(3-hydroxyphenyl)-2-(oxazol-2-yl)ethyl)-2H-benzo[e][1,2,4]thiadiazine-3-carboxamide 1,1-dioxide]
15 | – | 23 nM | – | 149 nM | – | – | 131 nM | – | – | – | 7150 nM | – | 1280 nM | 437 nM | Cc1cc(O)cc(C(CNC(=O)C2=Nc3ccc(I)cc3S(=O)(=O)N2)c2ncco2)c1 (centres unmarked) [Example 222, N-(2-(3-Hydroxy-5-methylphenyl)-2-(oxazol-2-yl)ethyl)-7-iodo-2H-benzo[e][1,2,4]thiadiazine-3-carboxamide 1,1-dioxide]
